Drawing on ChEMBL document CHEMBL1641484, “Efficient synthesis of trisaccharide saponins and their tumor cell killing effects through oncotic necrosis” (Bioorg Med Chem Lett, 2011), this text covers IC50 and Activity for six compounds.

Activity calls are given as the source filed them. The calls are words filed in the database; no cut-off is given here. Some results are limits rather than exact numbers.

Assay [1] deals with K562. Put plainly: Cytotoxicity against human K562 cells after 4 hrs by MTT assay. The following applies: K562, 4 h. In kind it is functional, cell-based. On the technique in general: Tetrazolium dyes change colour on reduction, which living cells bring about.
Assay [2] relates to KB. Put plainly: Cytotoxicity against human KB cells after 4 hrs by MTT assay. In kind it is functional, cell-based.
Assay [3] relates to MCF7. Put plainly: Cytotoxicity against human MCF7 cells after 4 hrs by MTT assay. The following applies: MCF7, 4 h. In kind it is functional, cell-based.
Assay [4] is described as follows: Cytotoxicity against human U87 cells after 4 hrs by MTT assay. In kind it is functional, cell-based, U-87MG ATCC. The following applies: U-87 MG.
A short description of assay [5]: Cytotoxicity against human EVC304 cells after 4 hrs by MTT assay. Type of assay: cell-based. The following applies: EVC304, 4 h.
Assay [6] is described as follows: Cytotoxicity against human HL-7702 cells after 4 hrs by MTT assay. As to conditions: L02, 4 h. In kind it is cell-based.
The test system of assay [7] is H9c2. The experiment in a line: Cytotoxicity against rat H9c2 cells after 4 hrs by MTT assay. In kind it is cell-based. The following applies: H9c2, 4 h.
Assay [8] concerns K562. The experiment in a line: Anticancer activity against human K562 cells assessed as membrane surface blebs at 5 uM after 30 to 60 mins by time-lapse microscopy. Type of assay: functional, cell-based.
The test system of assay [9] is K562. Put plainly: Anticancer activity against human K562 cells assessed as membrane surface blebs at 5 uM after 15 to 30 mins by time-lapse microscopy. In kind it is functional, cell-based.
Assay [10] relates to K562. Put plainly: Anticancer activity against human K562 cells assessed as loss of plasma membrane integrity at 5 uM after 10 mins by LDH release assay. In kind it is functional, cell-based. For orientation: LDH leaks from cells whose membrane has failed.
The subject of assay [11] is K562. Put plainly: Anticancer activity against human K562 cells assessed as loss of plasma membrane integrity at 5 uM after 180 mins by LDH release assay. In kind it is functional, cell-based.
In assay [12] the test system is MCF7. Put plainly: Anticancer activity against human MCF7 cells assessed as loss of plasma membrane integrity at 5 uM after 10 mins by LDH release assay. Type of assay: functional, cell-based.
Assay [13] has as its system MCF7. Put plainly: Anticancer activity against human MCF7 cells assessed as loss of plasma membrane integrity at 5 uM after 180 mins by LDH release assay. In kind it is functional, cell-based.
The subject of assay [14] is K562. Put plainly: Anticancer activity against human K562 cells assessed as loss of cell membrane integrity after 12 hrs by propidium iodide staining-based fluorescence microscopy. Type of assay: functional.
In assay [15] the test system is KB. The experiment in a line: Anticancer activity against human KB cells assessed as loss of cell membrane integrity after 12 hrs by propidium iodide staining-based fluorescence microscopy. In kind it is functional.
The test system of assay [16] is MCF7. The experiment in a line: Anticancer activity against human MCF7 cells assessed as loss of microtubules and actin microfilaments after 12 hrs by immunostaining. Type of assay: functional, cell-based.

The IC50 is the concentration that inhibits the measured activity by half. Lower therefore signals inhibition by little substance. Take `C=C(C)[C@@H]1CC[C@]2(C)CC[C@]3(C)[C@H](CC[C@@H]4[C@@]5(C)CC[C@H](O[C@@H]6O[C@H](CO)[C@H](O)[C@H](O[C@@H]7OC[C@@H](O)[C@H](O)[C@H]7O)[C@H]6O[C@@H]6O[C@@H](C)[C@H](O)[C@@H](O)[C@H]6O)C(C)(C)[C@@H]5CC[C@]43C)[C@@H]12`: the IC50 in assay [1], in assay [2], in [3] and in [4] was > 40 µM each time.
Take `C[C@@H]1O[C@@H](O[C@H]2[C@H](O[C@H]3CC[C@]4(C)[C@H]5CC[C@]6(C)C(=CC[C@@]7(C)CCC(C)(C)C[C@H]76)[C@]5(C)CC[C@H]4C3(C)C)O[C@H](CO)[C@H](O)[C@@H]2O[C@@H]2OC[C@@H](O)[C@H](O)[C@H]2O)[C@H](O)[C@H](O)[C@H]1O`: the half-maximal inhibitory concentration (IC50) in assay [1], in [2], in assay [3] and in [4] was > 40 µM in each case.
For the compound `C[C@@H]1CC[C@@]2(OC1)O[C@H]1C[C@H]3[C@@H]4CC=C5C[C@@H](O[C@@H]6O[C@H](CO)[C@H](O)[C@H](O[C@@H]7OC[C@@H](O)[C@H](O)[C@H]7O)[C@H]6O[C@@H]6O[C@@H](C)[C@H](O)[C@@H](O)[C@H]6O)CC[C@]5(C)[C@H]4CC[C@]3(C)[C@H]1[C@@H]2C` [INDIOSIDE E], the IC50 in assay [1] came to 3.74 µM; in [2], 1.71 µM; in [3], 1.82 µM; in [4] it was 2.48 µM; in [5], 3.93 µM; in assay [6] it was 4.81 µM. Moreover, the half-inhibitory concentration (IC50) in [7] was > 20 µM.
For the compound `CC[C@H](CC[C@@H](C)[C@H]1CC[C@H]2[C@@H]3CC=C4C[C@@H](O[C@@H]5O[C@H](CO)[C@H](O)[C@H](O[C@@H]6OC[C@@H](O)[C@H](O)[C@H]6O)[C@H]5O[C@@H]5O[C@@H](C)[C@H](O)[C@@H](O)[C@H]5O)CC[C@]4(C)[C@H]3CC[C@]12C)C(C)C`, the IC50 in [1], in assay [2], in [3] and in [4] was > 40 µM in each case.
Turning to `CC(C)CCC[C@@H](C)[C@H]1CC[C@H]2[C@@H]3CC=C4C[C@@H](O[C@@H]5O[C@H](CO)[C@H](O)[C@H](O[C@@H]6OC[C@@H](O)[C@H](O)[C@H]6O)[C@H]5O[C@@H]5O[C@@H](C)[C@H](O)[C@@H](O)[C@H]5O)CC[C@]4(C)[C@H]3CC[C@]12C`, the half-maximal inhibitory concentration (IC50) is 11.3 µM in assay [1]; 16.3 µM in assay [2]; 9.48 µM in assay [3]; 16.5 µM in [4]; > 20 µM in assay [5]; > 20 µM in assay [6]. In [7], the IC50 was > 20 µM.
On to `C[C@@H]1CC[C@@]2(OC1)O[C@H]1C[C@H]3[C@@H]4CC[C@H]5C[C@@H](O[C@@H]6O[C@H](CO)[C@H](O)[C@H](O[C@@H]7OC[C@@H](O)[C@H](O)[C@H]7O)[C@H]6O[C@@H]6O[C@@H](C)[C@H](O)[C@@H](O)[C@H]6O)CC[C@]5(C)[C@H]4CC[C@]3(C)[C@H]1[C@@H]2C`, for which the half-maximal inhibitory concentration (IC50) in assay [1] stood at 3.77 µM; in [2] it was 1.32 µM; in [3], 2.61 µM; in assay [4] it was 3.12 µM; in [5] it was 1.03 µM; in assay [6], 6.92 µM. For the same compound, in [7], the 50% inhibitory concentration (IC50) was > 20 µM. Besides, the outcome in assay [8], in assay [10], in assay [11], in assay [12], in [13] and in assay [14] was Active. Moreover, the result in [15] and in assay [16] was Active. For the same compound, the outcome in assay [9] was inactive.
